Converted amounts (≈) assume the structure as drawn. Where two headings read alike, the source gives them in different places.

This is an account of results in patent publication US11964986B1, “9-oxo-9,10-dihydro-6H-pyrano[3,2-b:4,5-b′]dipyridine-8-carboxylic acid derivatives” (REJUVERON TELOMERE THERAPEUTICS AG, priority 2023, dated 2024).

A short description of series [1]: logD(pH 7.4). The format is physicochemical.
Series [2] concerns the target PAPD7 (Homo sapiens, UniProt Q5XG87). Briefly: HBsAg ELISA in HepG2/2.2.15 PAPD5 KO cells (PAPD7 inhibitory activity). The format is cell-based. To be noted: Table 3, HBsAg secretion, 4 days, read-out: pIC50 PAPD7 (PAPD5 KO cells) (converted). (In general: An ELISA detects its analyte on a solid surface through an enzyme-linked reagent.)
Series [3] deals with T1, PAPD5 (Homo sapiens, UniProt Q8NDF8). Briefly: cell-based. More on the design: endogenous in cells; host or cells: HepG2/2.2.15 PAPD7 knock-out cells (CRISPR/Cas9). Particulars: for Fold sel. for PAPD5 over PAPD7: PAPD7 KO cells vs PAPD5 KO cells.
T1 sequence (Q8NDF8 whole entry): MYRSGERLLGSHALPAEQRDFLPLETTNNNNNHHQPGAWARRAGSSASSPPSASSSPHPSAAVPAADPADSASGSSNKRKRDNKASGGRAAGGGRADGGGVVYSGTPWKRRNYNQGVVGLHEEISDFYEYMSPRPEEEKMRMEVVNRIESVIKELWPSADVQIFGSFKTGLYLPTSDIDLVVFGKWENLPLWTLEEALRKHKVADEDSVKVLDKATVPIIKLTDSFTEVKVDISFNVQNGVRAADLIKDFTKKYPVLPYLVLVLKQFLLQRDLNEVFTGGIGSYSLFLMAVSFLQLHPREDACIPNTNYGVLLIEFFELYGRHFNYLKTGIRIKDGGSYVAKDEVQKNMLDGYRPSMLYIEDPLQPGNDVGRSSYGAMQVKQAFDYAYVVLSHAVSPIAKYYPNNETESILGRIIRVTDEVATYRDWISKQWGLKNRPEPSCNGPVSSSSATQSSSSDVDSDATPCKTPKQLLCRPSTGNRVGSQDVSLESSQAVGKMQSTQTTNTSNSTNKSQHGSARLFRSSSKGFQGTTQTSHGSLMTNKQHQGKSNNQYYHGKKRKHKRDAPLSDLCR
Experimental: (§1) The hepatocarcinoma HepG2/2.2.15 cell line (hereafter referred to as wild type) was obtained from Millipore (SCC249) and HepG2/2.2.15 PAPD5 knock-out (PAPD5 KO) and PAPD7 knock-out (PAPD7 KO) cells were generated using CRISPR/Cas9 technology.
To this end, all compounds of the present invention were also tested in an ELISA on HepG2/2.2.15 PAPD5 and PAPD7 KO cell lines to determine the compounds' potency to inhibit PAPD5 and their selectivity for PAPD5 over PAPD7.
(§2) Cell seeding and addition of the compounds: On day −1, HepG2/2.2.15 cell lines were seeded in U-bottom 96-well plates (Fisher Scientific, 10777241) at a density of 1,5×10^4 cells/well in a final volume of 200 μL complemented DMEM/F12. On day 0, medium was aspirated and cells were washed once with PBS (300 μL/well). Then, PBS was replaced with complemented DMEM/F12 (200 μL/well). Using a Tecan-TE300e chemical dispenser, the compounds were added to the cells with 11 half-log incremental dilutions in dimethyl sulfoxide (DMSO) (Sigma-Aldrich, 276855) within the highest concentration equal to 25 μM (concentration range 1). DMSO was used as no-drug control, and the final DMSO concentration in all wells was 0.5%. […] On day 4, the 96-well plate was centrifuged for 5 min at 300 g to spin down cell debris. 100 μL/well of cell culture supernatant were collected and diluted 1:2 with 100 μL of complemented DMEM/F12 to perform the ELISA.
(§3) ELISA: Before starting, the “Hepatitis B surface antigen ELISA kit” (Abnova, KA0286) was equilibrated at room temperature (RT) for 1 h. […] The anti-HB plate was sealed using adhesive foil provided with the kit and incubated for 1 h at 37° C. […] After the last wash, the residual liquid was removed by turning the plate upside down and tapping on adsorbent paper. TMB substrate solutions A and B were mixed in equal volumes and 100 μL/well of this mixture were added to each well. The plate was covered with the supplied tray and incubated at RT for 20 min. During this time, a color develops in proportion to the amount of HBsAg bound to anti-HBs. After incubation, the reaction was stopped by adding 100 μL/well of 2N aqueous H2SO4 solution. The optical density of the developed color was read at 450 nm using a Cytation 5 instrument with reference wavelength at 620 nm.
(§4) CCK8 viability assay: Viability of HepG2/2.2.15 WT, PAPD5 KO and PAPD7 KO cell lines treated with the compounds was determined using the Cell Counting Kit-8 (CCK8, Sigma-Aldrich, 96992) following the manufacturer's instructions. […] During this time, WST-8 is reduced by dehydrogenases in cells to give a yellow-colored product (formazan), which is soluble in the tissue culture medium. The amount of the formazan dye generated by the activity of dehydrogenases in cells is directly proportional to the number of living cells. After 1 h incubation, the optical density of the developed color was read at 450 nm using a Cytation 5 instrument with the reference wavelength at 620 nm. CCK8 optical density values were used for normalization of the ELISA results.
To determine the IC50 values, the amount of HBsAg (optical density values of the ELISA) was corrected by the number of living cells (CCK8 optical density) per each well. Normalized HBsAg values were used to generate a dose-response curve with a non-linear regression model and applying the Levenberg-Marquardt algorithm.
Series [4] deals with HBsAg secretion in HepG2/2.2.15 WT cells (combined effect of PAPD5 and PAPD7 inhibition).
Experimental: as §1
An ELISA was performed using a hepatocarcinoma HepG2/2.2.15 wild type (WT) cell line to assess the potential of the compounds of the present invention as treatments of chronic HBV infection.
as §2, §3, §4
To determine the IC50 values, the amount of HBsAg (optical density values of the ELISA) was corrected by the number of living cells (CCK8 optical density) per each well. Normalized HBsAg values were used to generate a dose-response curve with a non-linear regression model and applying the Levenberg-Marquardt algorithm. The percentage of inhibition was calculated relative to the untreated condition (DMSO CTRLs).
Series [5] is described as follows: kinetic solubility assay at pH 6.5. The format is physicochemical. Particulars: for solubility kinetic: pH 6.5, kinetic from dmso stock.
Series [6] in a line: Plasma protein binding (fraction unbound).
Text: (§5) In the ELISA 10% plasma protein (p=0.1) is used, whereas the assays using iPSCs are run in a plasma protein-free medium.
Series [7] relates to TERC in patient-derived iPSCs. Briefly: TERC stability by RLM-RACE in patient-derived iPSCs. To be noted: 1-week treatment, FIG. 2A.
Experimental: For coating, one aliquot of Corning Matrigel hESC-qualified matrix (approximately 300 μL) was thawed on ice and diluted in 25 mL ice-cold DMEM/F-12. […] The coating solution was kept on ice and Matrigel was handled using ice-cold pipette tips. 6 mL of the coating solution were added to one 10 cm cell culture dish and spread by gentle rocking. The coated dishes were then incubated at RT for at least 30 min to let the matrix solidify. The coating solution was aspirated from the dishes and cells were seeded immediately. […] Cells were incubated shortly at 37° C. and the colonies were briefly disaggregated by gentle pipetting or by agitation. The single cell suspension was transferred in a canonical tube with cold 1× PBS and centrifuged at 300 g for 5 min to remove Accutase. Cell pellet was resuspended in an appropriate volume of complemented Essential E8 medium and seeded in a Matrigel-coated dish according to the split ratio.
The compounds were dissolved in DMSO at a 10 mM stock concentration and diluted in complemented Essential E8 medium at the reported concentrations (Table 6). […]
Samples were spun at 12000 g for 10 min at 4° C. […] The RNA concentration was measured using a Qubit HS RNA quantification kit (Thermo Fisher, Q32852). […]
DNA was stored overnight at −20° C. before loading on agarose gel. PCR products were quantified using a Qubit dsDNA BR quantification kit (Thermo Fisher, Q32850). […]
For series [8], the system named is telomere length in patient-derived iPSCs. Briefly: Telomere restriction fragment (TRF) analysis in patient-derived iPSCs. Particulars: for telomere elongation: 4-week treatment, increasing concentrations, FIG. 2B.
Experimental: Healthy donor- and patient-derived induced Pluripotent Stem Cells (iPSCs), described in Moon et al. 2015, were cultured in feeder-free condition using Matrigel hESC-qualified matrix (Corning, 354277) coated cell culture dishes. For coating, one aliquot of Corning Matrigel hESC-qualified matrix (approximately 300 μL) was thawed on ice and diluted in 25 mL ice-cold DMEM/F-12. […] The coating solution was kept on ice and Matrigel was handled using ice-cold pipette tips. 6 mL of the coating solution were added to one 10 cm cell culture dish and spread by gentle rocking. The coated dishes were then incubated at RT for at least 30 min to let the matrix solidify. The coating solution was aspirated from the dishes and cells were seeded immediately. […] Cells were incubated shortly at 37° C. and the colonies were briefly disaggregated by gentle pipetting or by agitation. The single cell suspension was transferred in a canonical tube with cold 1× PBS and centrifuged at 300 g for 5 min to remove Accutase. Cell pellet was resuspended in an appropriate volume of complemented Essential E8 medium and seeded in a Matrigel-coated dish according to the split ratio.
The scope of this assay is to isolate telomeric DNA from healthy donor- and patient-derived iPSCs and determine the average length of isolated telomeres.
The compounds were dissolved in DMSO at a 10 mM stock concentration and diluted in complemented Essential E8 medium at the reported concentrations (Table 6). For untreated samples (0 nM) DMSO only was added to the medium. Culture medium with the diluted compound was replaced daily, and cells were subcultured as described above.
To carry out the cellular assays, cells were cultured in the presence of PAPD5 inhibitors and collected at different time points. […] (2) At week 4 (Day 28), cells were harvested for DNA isolation to perform Telomere Restriction Fragment (TRF) analysis. […]
Genomic DNA extraction: At day 28 of exposure, 2×10^6 iPSCs per condition were pelleted and resuspended in 200 μl PBS. […] DNA quantification was performed using a Qubit dsDNA BR quantification kit. […]
Series [9] has as its target T1, PAPD5. Briefly: Degree of PAPD5 target engagement calculated for test concentrations in assays using iPSCs. More on the design: endogenous in cells.
Text: as §5
The test system of series [10] is HBsAg. Particulars: Table 4; effective concentration that achieved 50% inhibitory effect; from WO2019177937; cited from earlier work.
Where [11] appears, read: Table 3, HepG2/2.2.15 PAPD7 KO cells, HBsAg secretion, 4 days, read-out: pIC50 PAPD5 (PAPD7 KO cells) (converted).
Setting [12] is: Table 5, PAPD7 KO cells, read-out: PIC50 PAPD5 (PAPD7 KO cells) (converted).
Setting [13] is: PAPD5 IC50 by ELISA, HepG2/2.2.15 PAPD7 KO cell line, 10% plasma protein, read-out: IC50ELISA.
Setting [14] is: unbound IC50 in protein-free medium, IC50ELISA*fu,ELISA, read-out: IC50u.

Chain of PAPD7 (Q5XG87 whole entry): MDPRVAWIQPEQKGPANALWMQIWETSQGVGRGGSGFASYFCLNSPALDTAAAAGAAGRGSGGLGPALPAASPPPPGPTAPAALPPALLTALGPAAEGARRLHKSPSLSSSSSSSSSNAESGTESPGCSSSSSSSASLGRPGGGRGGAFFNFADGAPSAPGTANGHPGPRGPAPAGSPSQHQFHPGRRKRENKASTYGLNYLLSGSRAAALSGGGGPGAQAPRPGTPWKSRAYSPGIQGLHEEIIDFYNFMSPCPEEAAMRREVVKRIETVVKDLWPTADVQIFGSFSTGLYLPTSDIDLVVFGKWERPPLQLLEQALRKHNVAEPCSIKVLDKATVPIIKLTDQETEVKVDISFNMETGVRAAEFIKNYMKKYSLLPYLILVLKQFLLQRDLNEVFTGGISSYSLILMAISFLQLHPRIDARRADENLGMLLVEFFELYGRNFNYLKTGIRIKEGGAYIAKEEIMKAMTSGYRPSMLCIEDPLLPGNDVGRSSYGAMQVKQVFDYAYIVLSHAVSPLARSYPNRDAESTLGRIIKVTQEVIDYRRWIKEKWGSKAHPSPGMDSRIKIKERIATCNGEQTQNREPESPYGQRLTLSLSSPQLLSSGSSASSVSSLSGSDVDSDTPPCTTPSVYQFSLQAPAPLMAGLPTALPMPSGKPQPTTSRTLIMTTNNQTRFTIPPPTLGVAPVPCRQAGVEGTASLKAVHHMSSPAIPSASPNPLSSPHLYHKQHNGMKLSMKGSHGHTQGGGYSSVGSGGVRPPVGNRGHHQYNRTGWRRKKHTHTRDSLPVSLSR

Usually logD stands for lipophilicity at a set pH, counting ionised and neutral species. A lower logD goes with a more hydrophilic compound. The term solubility (kinetic) denotes solubility judged after dilution from a stock solution rather than from solid. Compound `COCCCOc1cc2c(nc1OC)-c1[nH]c(=O)c(C(=O)O)cc1C(C(C)(C)C)O2` (racemic) [Example 505, (RS)-6-(tert-Butyl)-2-methoxy-3-(3-methoxypropoxy)-9-oxo-9,10-dihydro-6H-pyrano[3,2-b:4,5-b′]dipyridine-8-carboxylic acid] had a pH-dependent lipophilicity (logD) in series [1] of 1.1. Further, the IC50 was 10 nM in series [2], 2 nM in series [3] (setting [11]), 2 nM in series [3] (setting [12]) and 2 nM in [4]. Also, in series [3] (Table 3), the “Fold sel. for PAPD5 over PAPD7” value worked out at 4.9 Fold. For the same compound, the “fold more soluble than example 701” value in series [5] (kinetic solubility assay at pH 6.5) was determined as 2.6 fold. Also, in series [5], the solubility (kinetic) was 484 µM (≈ 203 µg/mL).

One may read the fraction unbound as the share of the substance not bound to proteins or other matrix. Consider `COCCCOc1cc2c(nc1OC)-c1c(cc(C(=O)O)c(=O)n1C1CC1)C(C(C)(C)C)O2` (racemic) [Example 506, (RS)-6-(tert-Butyl)-10-cyclopropyl-2-methoxy-3-(3-methoxypropoxy)-9-oxo-9,10-dihydro-6H-pyrano[3,2-b:4,5-b′]dipyridine-8-carboxylic acid], for which the fraction unbound is 0.347 in series [6] and 0.84 in series [6] (fu, ELISA, fraction unbound in ELISA, calculated with p = 0.1). Besides, the IC50 is 0.501 nM in series [2]; 0.0847 nM in [3] (setting [13]); 0.0794 nM in series [3] (setting [12]); 0.07 nM in [3] (setting [14]); 0.2 nM in series [4]. In addition, the “Fold sel. for PAPD5 over PAPD7” value in [3] (Table 3) was 6.1 Fold. In addition, the “levels of the mature and stable form of TERC” value in series [7] is “restores the steady-state and physiological levels of the mature and stable form of TERC”. Besides, in series [8] (0.5 nM, 4 weeks of treatment), the “telomere length after elongation” value is “up to 8 kb”. Besides, the telomere elongation result in series [8] is listed as “dose-dependently effects telomere elongation”. The “% Target engagement (X)” value in series [9] (test conc. 0.1 nM) was 54%; in series [9] (test conc. 0.5 nM) it was 86%; in [9] (test conc. 2.5 nM) it was 97%.

Regarding `COCCCOc1cc2c(cc1OC)-c1cc(=O)c(C(=O)O)cn1[C@H](C(C)C)C2` [RG7834], the “fu, plasma” value worked out at 0.328. In addition, where the note is “plasma”, the “fu, ELISA” value turned out to be 0.83. Also, the IC50 in series [3] (setting [13]) is 1.64 nM. Moreover, the IC50 in series [3] (setting [14]) came out at 1.35 nM. Also, the “levels of the mature and stable form of TERC” value in series [7] was “restores the steady-state and physiological levels of the mature and stable form of TERC”. Besides, the telomere elongation entry in series [8] is “dose-dependently effects telomere elongation”. For the same compound, the “% Target engagement (X)” value in series [9] (test conc. 0.3 nM) was 16%. For the same compound, the “% Target engagement (X)” value in series [9] (test conc. 1 nM) is on record as 38%. In addition, the “% Target engagement (X)” value in series [9] (test conc. 3 nM) is listed as 65%. The “% Target engagement (X)” value in [9] (test conc. 10 nM) is reported as 86%. The “% Target engagement (X)” value in series [9] (test conc. 30 nM) is on record as 95%.

As to `COCCCOc1cc2c(nc1OC)-c1[nH]c(=O)c(C(=O)O)cc1C(C(C)(C)C)C2` (racemic) [Example 701, (RS)-5-(tert-Butyl)-9-methoxy-8-(3-methoxypropoxy)-2-oxo-1,2,5,6-tetrahydro-1,10-phenanthroline-3-carboxylic acid, reference compound], in [1], the logD was 1.4. This compound also returned a solubility (kinetic) in [5] of 186 µM (≈ 77.3 µg/mL).

As for `COCCCOc1cc2c(nc1C1CC1)-c1c(cc(C(=O)O)c(=O)n1C1CC1)C(C(C)(C)C)O2` (racemic) [Example 508, (RS)-6-(tert-butyl)-2,10-dicyclopropyl-3-(3-methoxypropoxy)-9-oxo-9,10-dihydro-6H-pyrano[3,2-b:4,5-b′]dipyridine-8-carboxylic acid], the results for the IC50 in series [2], in series [3] (setting [11]) and in [4] were 0.1 nM, 0.1 nM and 0.0631 nM, respectively. The “Fold sel. for PAPD5 over PAPD7” value in series [3] (Table 3) was 1.0 Fold.

Broadly, the EC50 is the concentration that produces a half-maximal response. In the case of “(RS)-6-Isopropyl-2-methoxy-3-(3-methoxypropoxy)-9-oxo-9,10-dihydro-6H-pyrano[3,2-b:4,5-b′]dipyridine-8-carboxylic acid [Example 501]”, the EC50 in series [10] is 94 nM.

Turning to `COCCCOc1cc2c(nc1OC)-c1[nH]c(=O)c(C(=O)O)cc1C1(CCCC1)O2` [Example 509, 2′-Methoxy-3′-(3-methoxypropoxy)-9′-oxo-9′,10′-dihydrospiro[cyclopentane-1,6′-pyrano[3,2-b:4,5-b′]dipyridine]-8′-carboxylic acid], the IC50 in series [2] is 316 nM; in series [3] (setting [11]), 31.6 nM; in series [4], 25.1 nM. For the same compound, the “Fold sel. for PAPD5 over PAPD7” value in [3] (Table 3) turned out to be 10.4 Fold.

For the compound `COCCCOc1cc2c(nc1C1CC1)-c1[nH]c(=O)c(C(=O)O)cc1C(C(C)(C)C)O2` (racemic) [Example 507, (RS)-6-(tert-Butyl)-2-cyclopropyl-3-(3-methoxypropoxy)-9-oxo-9,10-dihydro-6H-pyrano[3,2-b:4,5-b′]dipyridine-8-carboxylic acid], the IC50 in series [2] was 0.631 nM; in [3] (setting [11]), 0.398 nM; in [4], 0.794 nM. The “Fold sel. for PAPD5 over PAPD7” value in [3] (Table 3) came to 1.8 Fold.
